From US7799812B2, “Reverse isoxazoles” (Novartis AG, priority 2006, dated 2010)

target: T1, human EDG-1 (S1P1) (Homo sapiens, UniProt P21453); experiment: S1P1 (EDG-1) GTP [γ-35S] binding assay, membranes from CHO cells; format: biochemical
T1 construct: c-myc (N); expressed in transfected cells
Protocol: A. In vitro: GPCR Activation Assay Measuring GTP [γ-^35S] Binding to Membranes Prepared from CHO Cells Expressing Human EDG Receptors
S1P1 (EDG-1) GTP [γ-^35S] binding assay: Homogenized membranes are prepared from CHO cell clones stably expressing a human EDG-1 N-terminal c-myc tag. Cells are grown in suspension in two 850 cm^2 roller bottles for three or fours days before harvesting. The cells are centrifuged down, washed once with cold PBS, and resuspended in ≦20 ml of Buffer A (20 mM HEPES, pH 7.4, 10 mM EDTA, EDTA-free complete protease inhibitor cocktail [1 tablet/25 ml]). The cell suspension is homogenized on ice, using a Polytron homogenizer at 30000 rpm at three intervals of 15 seconds each. The homogenate is first centrifuged at 2000 rpm on a tabletop low speed centrifuge for 10 minutes. The supernatant, after passing through a cell strainer, is then re-centrifuged at 50,000×g for 25 minutes at 4° C. The pellet is resuspended into buffer B (15% glycerol, 20 mM HEPES, pH 7.4, 0.1 mM EDTA, EDTA-free complete protease inhibitor cocktail [1 tablet/10 ml]). Protein concentration of the preparation is determined using the BCA Protein Assay kit (Pierce) using BSA as standard. The membranes are aliquoted and kept frozen at −80° C.
Solutions of test compounds ranging from 10 mM to 0.01 nM are prepared in DMSO. S1P is diluted in 4% BSA solution as positive controls. The desired amount of membrane preparation is diluted with ice-cold assay buffer (20 mM HEPES, pH 7.4, 100 mM NaCl, 10 mM MgCl2, 0.1% Fatty acid-free BSA, 5 μM GDP) and vortexed well. 2 μl or less of compound is distributed into each well of a round-bottom 96-well polystyrene assay plate, followed by addition of 100 μl of diluted membranes (3-10 μg/well) and kept on ice until the addition of hot GTPγS. [^35S]-GTPγS is diluted 1:1000 (v/v) with cold assay buffer and 100 μl is added into each well. The reaction is carried out at room temperature for 90 minutes before the membranes are harvested onto Perkin-Elmer Unifilter® GF/B-96 filter plate using a Packard Filtermate Harvester. […]

T1 sequence (P21453 whole entry): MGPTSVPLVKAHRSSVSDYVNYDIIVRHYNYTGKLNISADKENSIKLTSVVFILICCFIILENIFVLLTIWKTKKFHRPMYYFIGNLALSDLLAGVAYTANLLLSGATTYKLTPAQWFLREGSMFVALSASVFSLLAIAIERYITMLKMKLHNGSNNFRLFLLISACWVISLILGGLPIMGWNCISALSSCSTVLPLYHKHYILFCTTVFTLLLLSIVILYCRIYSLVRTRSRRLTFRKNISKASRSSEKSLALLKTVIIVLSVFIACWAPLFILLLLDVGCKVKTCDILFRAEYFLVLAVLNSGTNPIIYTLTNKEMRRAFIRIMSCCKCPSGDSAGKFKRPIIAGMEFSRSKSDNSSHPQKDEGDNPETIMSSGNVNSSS

Row | EC50 [nM] | SMILES
1 | < 1000 | O=C(O)CCNS(=O)(=O)c1ccc(-c2nc(-c3ccc(-c4ccccc4)c(C(F)(F)F)c3)no2)cc1 [Example 4, 3-{4-[3-(2-Trifluoromethyl-biphenyl-4-yl)-[1,2,4]oxadiazol-5-yl]-benzene-sulfonylamino}-propionic acid]
2 | < 1000 | NS(=O)(=O)c1ccc(-c2nc(-c3ccc(-c4ccccc4)c(C(F)(F)F)c3)no2)cc1 [Example 13]
3 | < 1000 | O=C(O)CCC(=O)Nc1ccc(-c2nc(-c3ccc(C4CCCCC4)c(C(F)(F)F)c3)no2)cc1 [Example 21]
